Data on one compound can be found in patent US12673942B2, “Azabicyclyl-substituted heterocycles as fungicides” (Bayer Aktiengesellschaft, priority 2020, dated 2026).

A short description of series [1]: Measurement of Log P values by HPLC on reversed phase columns (EEC directive 79/831 Annex V.A8). To be noted: method [a]: LC-UV, acidic range, 0.1% formic acid in water and acetonitrile as eluent. The format is physicochemical.
In series [2] the test system is Alternaria alternata. The series is described as follows: Alternaria alternata in vitro cell test. The format is cell-based. To be noted: 120 h, 20 ppm of active ingredient, liquid culture, 5 days incubation, read-out: efficacy (inhibition of fungal growth). Here is the method:
(§1) • Solvent: […] Fungicides were solubilized in DMSO and the solution used to prepare the required range of concentrations. The final concentration of DMSO used in the assay was ≤1%. A spore suspension of Alternaria alternata was prepared and diluted to the desired spore density. Fungicides were evaluated for their ability to inhibit spore germination and mycelium growth in liquid culture assay. The compounds were added in the desired concentration to the culture medium with spores. After 5 days incubation, fungi-toxicity of compounds was determined by spectrometric measurement of mycelium growth. Inhibition of fungal growth was determined by comparing the absorbance values in wells containing the fungicides with the absorbance in control wells without fungicides.

The subject of series [3] is Fusarium culmorum. Nature of the series: Fusarium culmorum in vitro cell test. To be noted: 96 h, 20 ppm of active ingredient, liquid culture, 4 days incubation, read-out: efficacy (inhibition of fungal growth). The format is cell-based. Here is the method:
• Solvent: DMSO • Culture medium: 14.6 g anhydrous D-glucose (VWR), 7.1 g Mycological Peptone (Oxoid), 1.4 g granulated Yeast Extract (Merck), QSP 1 liter • Inoculum: spore suspension
Fungicides were solubilized in DMSO and the solution used to prepare the required range of concentrations. The final concentration of DMSO used in the assay was ≤1%.
A spore suspension of Fusarium culmorum was prepared and diluted to the desired spore density.
Fungicides were evaluated for their ability to inhibit spore germination and mycelium growth in liquid culture assay. The compounds were added in the desired concentration to the culture medium with spores. After 4 days incubation, fungi-toxicity of compounds was determined by spectrometric measurement of mycelium growth. Inhibition of fungal growth was determined by comparing the absorbance values in wells containing the fungicides with the absorbance in control wells without fungicides.

The subject of series [4] is Pyricularia oryzae. The series is described as follows: microbe, parasite or virus in culture. The format is cell-based. To be noted: 120 h, read-out: efficacy (inhibition of fungal growth).
Series [5] concerns Colletotrichum lindemuthianum. Nature of the series: Colletotrichum lindemuthianum in vitro cell test. The format is cell-based. Conditions: 144 h, 20 ppm of active ingredient, liquid culture, 6 days incubation, read-out: efficacy (inhibition of fungal growth). Here is the method: as §1, with “1%.” for “≤1%.”, “Colletotrichum lindemuthianum” for “Alternaria alternata”, “6” for “5”

The test system of series [6] is Septoria tritici. The series is described as follows: Septoria tritici in vitro cell test. The format is cell-based. To be noted: Zymoseptoria tritici, 168 h; 20 ppm of active ingredient; liquid culture, 7 days incubation; read-out: efficacy (inhibition of fungal growth). Here is the method: • Solvent: DMSO • Culture medium: 1 g KH2PO4 (VWR), 1 g K2HPO4 (VWR), 0.5 g Urea (VWR), 3 g KNO3 (Prolabo), 10 g saccharose (VWR), 0.5 g MgSO4, 7H2O (Sigma), 0.07 g CaCl2, 2H2O (Prolabo), 0.2 mg MnSO4, H2O (Sigma), 0.6 mg CuSO4, 5H2O (Sigma), 7.9 mg ZnSO4, 7H2O (Sigma), 0.1 mg H3BO3 (Merck), 0.14 mg NaMoO4, 2H2O (Sigma), 2 mg thiamine (Sigma), 0.1 mg biotine (VWR), 4 mg FeSO4, 7H2O (Sigma), QSP 1 liter • Inoculum: spore suspension Fungicides were solubilized in DMSO and the solution used to prepare the required range of concentrations. The final concentration of DMSO used in the assay was 1%. A spore suspension of Septoria tritici was prepared and diluted to the desired spore density. Fungicides were evaluated for their ability to inhibit spore germination and mycelium growth in liquid culture assay. The compounds were added in the desired concentration to the culture medium with spores. […] Inhibition of fungal growth was determined by comparing the absorbance values in wells containing the fungicides with the absorbance in control wells without fungicides.

As to `Cc1ccc(C[C@@H]2CON=C(c3c(Oc4cccc(Br)c4F)cnc4ccccc34)N2)c(C)c1` (racemic) [Compound I-019], in series [1], the chromatographic logP turned out to be 4.33. Moreover, the inhibition at 20 ppm in series [2], in series [3], in series [4], in series [5] and in series [6] was at least 70% in each case.
